Data from patent US11318141B2, “Methods and compositions related to STK1-targeted small molecules as antibiotic resistance breakers” (Ohio State Innovation Foundation, priority 2017, dated 2022).
Values after ≈ are worked out from the molar mass of the structure shown. Values joined by “and” are separate entries in the source; they are usually repeats but may differ in a detail not shown here. Equal entries are not always repeated. Where two headings read alike, the source gives them in different places.

Key:
[1] = test system: S. aureus MW2-WT; assay: Time-to-kill assay (OD and CFU counts over 16 h), broth dilution; assay type: cell-based, Staphylococcus aureus; conditions: only 50 μM Inh2-B1, only 1.5 μM Ceftriaxone (1 μg/ml) or only 3 μM Cefotaxime (1 μg/ml), 16 h
Description: FIGS. 4A-F show. […] Optical Density and corresponding Colony forming units of (C and D) MW2-WT and (E and F) MW2ΔSTK1 cultures in the presence or absence 50 μM Inh2-B1, 1.51 μM (1 μg/ml) Ceftriaxone, 2.125 μM (1 μg/ml) Cefotaxime, and combination of Inh2-B1 plus Ceftriaxone, and Inh2-B1 plus Cefotaxime. The experiments were carried out as described in the Materials and Method section using Muller-Hinton broth and seeded with 4×10^6 CFUs of S. aureus MW2-Wild type or MW2ΔSTK1 strains per well. Each data points represent Mean±S.D. P values of significance (**=<0.01, ***=<0.001) were determined using the t-test with Welch's corrections. NS—Not significant.
(§1) Subsequently, the susceptibility of S. aureus MW2 strain to Ceftriaxone, Cefotaxime, Inh2, and Inh2-B1 was confirmed by the CLSI recommended serial dilution method using Muller Hinton broth. Minimum bactericidal activity (MBC) was measured using Muller-Hinton agar. Changes in the MBC of Ceftriaxone/Cefotaxime in the presence of serially diluted Inh2-B1 was determined in two steps. Initial screening was carried out using the Checkerboard method using Muller-Hinton agar (FIG. 15). […] Subsequent time to kill assays were carried out using 50 μM Inh2-B1 and Ceftriaxone. Cefotaxime (1 μg/ml) in a final volume of 250 μl using a sterile 96-well (U-bottom) microtiter plate over a period of 16 h at 37° C. under constant rotation (120 rpm). Optical density and corresponding CFU counts were measured at every two-hour interval up to 8 hours with a final overnight reading at the end of incubation period. CFU counts were measured using appropriate dilution of 10 μl of properly mixed samples at each time interval. All experiments were performed in three biological replicates and the statistical analysis of the results obtained at each time point was carried out by the non-parametric t-test with Welch's correction using GraphPad Prism 6 software.

[2] = test system: S. aureus MW2-WT; assay: microbe, parasite or virus in culture; assay type: cell-based, Staphylococcus aureus; conditions: for MIC / susceptibility pattern for MW2 in the presence vs absence of Inh2-B1: E-test, 50 μM Inh2-B1
[3] = test system: S. aureus MW2ΔSTP1 mutant; assay: E-test antibiotic susceptibility (MIC), Muller-Hinton agar; assay type: cell-based; conditions: Staphylococcus aureus
[4] = test system: S. aureus MW2ΔSTK1 mutant; assay: as above; assay type: cell-based; conditions: Staphylococcus aureus
[5] = test system: S. aureus MW2 wild-type; assay: Checkerboard titration end-point bactericidal assay (MBC), Muller-Hinton agar; assay type: cell-based, Staphylococcus aureus; conditions: for MBC: Staphylococcus aureus, MW2WILDTYPE
Description: FIGS. 15A-15B show checkerboard assays for determining bactericidal assay. Serial two-fold dilutions of 2 mM of Inh2-B1 (MW=411.58 g/mol) and (A) 3 mM ceftriaxone (MW=669.7 g/mol) were made in two separate 96-well plates in vertical (B1-B12 to H1-H2 wells) and horizontal (A2-H2 to A12-H12 wells) directions respectively. Serially diluted Inh2-B1 (100 μL) in the individual well was then mixed with the 100 μL serially diluted ceftriaxone present in the corresponding wells. The resulting various combinations of Inh2-B1 (starting from 1 mM) and ceftriaxone (starting from 1.5 mM) or cefotaxime (2.1 mM) as well as serially diluted one Inh2-B1 (B1 to H1) and ceftriaxone (A2-A12) or cefotaxime (A2-A12) were then incorporated in Muller-Hinton mini agar plates (2 mL). The agar plates were then seeded and diluted S. aureus MW2-wild-type culture equivalent to approximately 23±3 CFU. This checkerboard assay was used to determine the ideal combination of lowest concentration of Inh2-B1 and ceftriaxone that kills 99.9% of the wild-type MW2.
Since the STK1 is not essential for bacterial survival and its absence results in retardation of growth, an end-point bactericidal assay was done, employing the Checkerboard titration method followed by a time-to-kill assay using the broth dilution method. The 96-well plate-based checkerboard titration assays were performed using the fixed number of CFUs of MW2 strain, and the survival of the bacteria was measured on solid agar plates as an end-point result. […] The cut-off value to designate clinical isolates of S. aureus for antibiotics, including Ceftriaxone (TX) and Cefotaxime (CT) as susceptible, is less than 4 μg/ml (i.e., <4.8 μM of TX, and <7 μM of CT). […] CFU counts of MW2-WT grown in the presence of various concentrations of Inh2-B1 were examined over a period of 16 h. […] Similarly, it was also determined CFU counts of MW2-WT and MW2ΔSTK1 strains each grown in the absence or the presence of 50 μM of Inh2-B1 and 1.5 μM Ceftriaxone (1 μg/ml) or […] Cefotaxime (1 μg/ml) for 16 h employing the broth dilution method. […] Further, to address whether MW2 or STK1 could become refractory to a potential combined therapy, the S. aureus MW2 wild-type strain was grown in the presence of suboptimal dose of Inh2-B1 alone and combination with Ceftriaxone and Cefotaxime (25 μM Inh2-B1 and 3 μM of Ceftriaxone or 3 μM Cefotaxime) for consecutive 10 generations.
as §1, with “interval.” for “interval. All experiments were performed in three biological replicates and the statistical analysis of the results obtained at each time point was carried out by the non-parametric t-test with Welch's correction using GraphPad Prism 6 software.”

[6] = test system: S. aureus MW2-WT; assay: S. aureus mouse septicemia model, therapeutic study; assay type: in vivo, CD-1 mice; conditions: only Cefotaxime 10 mg/kg
Description: The virulence potential of the wild-type S. aureus MW2 wild-type and corresponding MW2ΔSTK1 and MW2ΔSTP1 mutants was assessed using the mouse-septicemia model. CD-1 mice (5 weeks old, 20-22 g. Charles River Laboratories, ten female mice/group and housed in a group of 5 mice/cage) were lightly anesthetized with isoflurane and injected retro-orbitally with the S. aureus MW2 or isogenic MW2Δstk1 mutant (4×10^8 CFU/0.1 ml of PBS). […] For therapeutic studies, the animals were first challenged with MW2-WT strain as described above and subsequently administered with antibiotic and/or small molecule compounds. The latter was started 4 h after the challenge and subsequently 12 h apart for 4 days post infection. Thus, Inh2-B1 (5 mg/kg body weight in 0.3 ml vehicle buffer), Ceftriaxone (10 and 25 mg/kg body weight in 0.3 ml vehicle buffer). Cefotaxime (10 mg/kg body weight), combination of Ceftriaxone (10 mg and 25 mg/kg body weight in 0.3 ml vehicle buffer) or Cefotaxime (10 mg/kg body weight) with Inh2-B1 (5 mg/kg body weight in 0.3 ml vehicle buffer), or 0.3 ml of vehicle-buffer (50 mM Tris/HCl, pH 8.8, 1.67% [v/v] DMSO). Early removal and euthanasia criteria were applied to all experimental mice showing penultimate sign(s) of the unrecoverable stage of illness, including ruffled skin with a hunch back, loss of more than 20% of body mass as compared to unchallenged mice receiving mock treatment, dyspnea, and labored gasping. All experiments were performed twice. Data were combined, and percentage survival in each group was statistically evaluated by the Log-Rank test (Kaplan-Meier) using the GraphPad Prism 6 software. P<0.05 was treated as a significant difference. On Day 3 P.I., 3-6 mice from different groups receiving treatment with a single antibiotic or combination therapy were euthanized and sacrificed, and kidneys were […] for determining the bacterial load, which was determined by counting the colony forming units in the homogenized tissue in sterile PBS buffer.

Compound	growth pattern of the wild-type, single agent [1]	MIC ([2]; Staphylococcus aureus, MW2WT)	MIC [3]	MIC [4]	MBC ([5]; agent alone, MW2, read-out: Minimum bactericidal concentration (MBC))	MBC ([5]; in the presence of 50 μM of Inh2-B1, read-out: MBC for MW2 in the presence of Inh2-B1)	concentration up to which growth of MW2 was seen ([5]; agent alone, further analysis)	concentration of wells with ≥1 CFU of wild-type MW2 ([5]; checkerboard, agent alone)	fold reduction of MBC ([5]; in the presence of 50 μM of Inh2-B1 vs antibiotic alone)	time within which all challenged mice died [6]	MIC / susceptibility pattern for MW2 in the presence vs absence of Inh2-B1 [2]
CO/N=C(\C(=O)N[C@@H]1C(=O)N2C(C(=O)O)=C(COC(C)=O)CS[C@H]12)c1csc(N)n1 [Cefotaxime]	remained unaltered	> 100 µg/mL	> 100 µg/mL	4 µg/mL (≈ 8.78 µM)	220 µM and 100 µg/mL	27.5 µM and 12.5 µg/mL	176 µM	≤ 110 µM	8 fold	36 to 48 h	
CC[C@H]1OC(=O)[C@H](C)[C@@H](O[C@H]2C[C@@](C)(OC)[C@@H](O)[C@H](C)O2)[C@H](C)[C@@H](O[C@@H]2O[C@H](C)C[C@H](N(C)C)[C@H]2O)[C@](C)(O)C[C@@H](C)C(=O)[C@H](C)[C@@H](O)[C@]1(C)O [Erythromycin]											remained unaltered
C[C@@H](O)[C@H]1C(=O)N2C(C(=O)O)=C(S[C@@H]3CN[C@H](C(=O)N(C)C)C3)[C@H](C)[C@H]12 [Meropenem]											remained unaltered
